Measured values: US6953788B1, “3-mercaptoacetylamino-1,5-substituted-2-oxo-azepan derivatives useful as inhibitors of matrix metalloproteinase” (Aventis Pharmaceuticals Inc., priority 1996, dated 2005)

How the values were obtained:
[1] = target: T1, MMP-3 (Stromelysin-1) (Homo sapiens, UniProt P08254); assay: Determination of inhibition constant (Ki) for MMP-3, fluorogenic substrate; type: biochemical; conditions: activated MMP-3, 37° C., pH 7.6
T1 construct: The active MMP-3 was obtained by treatment of proMMP-3 with trypsin; endogenous in cells; host or cells: human rheumatoid synovial fibroblasts stimulated with macrophage-conditioned medium (secreted into the culture medium)
Protocol: Aliquots of the activated MMP-3 were stored at −20° C.
The activated MMP-3 is assayed using a fluorogenic substrate, Mca-Pro-Leu-Gly-Leu-Dpa-Ala-Arg-NH2, Knight, C. […] The increase in fluorescence due to cleavage of Gly-Leu peptide bond by MMP-3 was monitored with Perkin-Elmer LS50B Fluorimeter (λex328 nm, λem393 nm, excitation slit 2.5, emission slit 10). Substrate and inhibitor stock solutions were made in DMF and 0.1% HCl-DMF, respectively. […] The enzyme (10 μL of 0.2 μM MMP-3 dilution in assay buffer) was added at the last to start the reaction. […] Under these conditions, the measured Ki,app is close to true Ki.
(§1) The Ki for a competitive inhibitor is calculated using: v0/vi=(1+[I]/Ki,app) and Ki=Ki,app/(1+[S]/KM), where v0 is the initial rate in the absence of inhibitor, vi is the initial rate in the presence of inhibitor at the concentration of [I], [S] is the substrate concentration, and Km is the Michaelis constant. If slow binding is observed (i.e. if the approach to the binding equilibrium is slow), the final steady-state rate rather than the initial rate is taken as vi.

[2] = target: T2, MMP-12 (macrophage metalloelastase) (Homo sapiens, UniProt P39900); assay: Determination of inhibition constant (Ki) for MMP-12, fluorogenic substrate; type: biochemical; conditions: 25C., pH 7.6
T2 construct: made in house
Protocol: as §1

T1 sequence (P08254 100-477): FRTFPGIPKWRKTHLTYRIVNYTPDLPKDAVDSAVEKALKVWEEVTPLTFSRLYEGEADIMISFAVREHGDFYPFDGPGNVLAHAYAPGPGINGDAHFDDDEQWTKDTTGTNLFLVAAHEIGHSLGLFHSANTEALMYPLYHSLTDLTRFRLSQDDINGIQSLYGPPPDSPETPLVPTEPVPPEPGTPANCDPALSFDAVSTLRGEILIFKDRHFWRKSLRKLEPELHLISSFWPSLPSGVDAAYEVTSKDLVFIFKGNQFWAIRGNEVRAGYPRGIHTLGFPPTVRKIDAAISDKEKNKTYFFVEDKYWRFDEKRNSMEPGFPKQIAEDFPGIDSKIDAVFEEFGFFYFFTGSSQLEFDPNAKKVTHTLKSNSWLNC
T2 sequence (P39900 106-263 limits assumed): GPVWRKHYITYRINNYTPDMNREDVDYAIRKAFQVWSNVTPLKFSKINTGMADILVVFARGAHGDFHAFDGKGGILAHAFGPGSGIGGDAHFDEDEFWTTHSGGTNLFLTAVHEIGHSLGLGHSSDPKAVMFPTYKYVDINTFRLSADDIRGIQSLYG

Structure (SMILES) | Ki [1] [nM] | Ki [2] [nM]
CNC(=O)[C@H](Cc1ccccc1)N1CCN(Cc2ccccc2)C[C@H](NC(=O)[C@@H](S)CCCCN2C(=O)c3ccccc3C2=O)C1=O (relative stereo) [IV-1, 2H-Isoindole-2-hexanamide, N-[hexahydro-4-[2-(methylamino)-2-oxo-1-(phenylmethyl)ethyl]-5-oxo-1-(phenylmethyl)-1H-1,4-diazepin-6-yl]-1,3-dihydro-α-mercapto-1,3-dioxo-, [6S-[4(R*), 6R*(R*)]]-] | 210 | 
CNC(=O)C(Cc1ccccc1)N1CCC(c2ccccc2)CC(NC(=O)C(S)CCCCN2C(=O)c3ccccc3C2=O)C1=O (stereo not drawn) [III-1, 2H-Isoindole-2-hexanamide, N-[hexahydro-1-[2-(methylamino)-2-oxo-1-(phenylmethyl)ethyl]-2-oxo-5-phenyl-1H-azepin-3-yl]-1,3-dihydro-α-mercapto-1,3-dioxo-, [3S-[1(R*), 3α, 5β]]-] | 73 | 53
